Test [1] has as its system Mus musculus. The test can be described thus: Antiseizure activity against electrical stimulus induced seizure in ip dosed CD-1 mouse model assessed as reduction in hindlimb tonic extension pretreated for 1 hr by maximal electroshock seizure test. In kind it is functional, organism-based. For orientation: The maximal electroshock test induces tonic seizures with an electrical stimulus.

Test [2] deals with Synaptic vesicle glycoprotein 2A (Mus musculus, UniProt Q9JIS5). The test can be described thus: Binding affinity to mouse SV2A in presence of levetiracetam by radioligand binding assay.
Synaptic vesicle glycoprotein 2A, sequence (Q9JIS5 whole entry): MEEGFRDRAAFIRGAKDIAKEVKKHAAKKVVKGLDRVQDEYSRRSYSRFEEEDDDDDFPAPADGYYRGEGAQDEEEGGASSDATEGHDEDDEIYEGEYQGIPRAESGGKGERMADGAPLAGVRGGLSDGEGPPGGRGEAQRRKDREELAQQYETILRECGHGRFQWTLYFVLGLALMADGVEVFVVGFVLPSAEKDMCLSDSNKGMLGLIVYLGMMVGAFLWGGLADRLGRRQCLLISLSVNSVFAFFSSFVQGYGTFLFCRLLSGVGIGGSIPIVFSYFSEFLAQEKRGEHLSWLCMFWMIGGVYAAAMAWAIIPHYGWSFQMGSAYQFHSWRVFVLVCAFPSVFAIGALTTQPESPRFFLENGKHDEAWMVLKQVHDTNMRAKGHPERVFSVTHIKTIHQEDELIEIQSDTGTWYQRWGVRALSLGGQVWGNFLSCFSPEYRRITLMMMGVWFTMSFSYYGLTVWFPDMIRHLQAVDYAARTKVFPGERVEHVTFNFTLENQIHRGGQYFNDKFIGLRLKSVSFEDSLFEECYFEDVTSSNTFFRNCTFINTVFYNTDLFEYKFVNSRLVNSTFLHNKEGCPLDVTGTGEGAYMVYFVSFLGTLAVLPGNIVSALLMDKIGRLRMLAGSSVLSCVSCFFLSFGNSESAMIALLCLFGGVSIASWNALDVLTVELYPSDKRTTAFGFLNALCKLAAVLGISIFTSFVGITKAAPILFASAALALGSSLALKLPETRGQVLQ
Test [3] concerns Mus musculus. The test can be described thus: Antiseizure activity against electrical stimulus induced seizure in ip dosed CD-1 mouse model assessed as normal behavior within 10 seconds after stimulation at 6 Hz and 32 mA for 3 secs pretreated for 0.5 hr by psychomotor seizure test. The format is functional, organism-based.
The species named for test [4] is Mus musculus. The test can be described thus: animal or person. Particulars: CD-1, 0.5 h.
The species named for a further test is Homo sapiens. The test can be described thus: Binding affinity to TTX-sensitive sodium channel (unknown origin) at 100 uM.
In test [5] the test system is Mus musculus. Nature of the test: Antiseizure activity against ScPTZ-induced seizure in ip dosed CD-1 mouse model assessed as clonic seizures pretreated for 1 hr and measured after 30 mins by subcutaneous pentylenetetrazole test. The format is functional, organism-based.
In test [6] the test system is Mus musculus. The test can be described thus: Antiseizure activity against ScPTZ-induced seizure in ip dosed CD-1 mouse model assessed as clonic seizures pretreated for 0.5 hrs and measured after 30 mins by subcutaneous pentylenetetrazole test. In kind it is functional, organism-based.
Test [7] deals with Voltage-dependent T-type calcium channel subunit alpha-1H (Homo sapiens) (UniProt O95180). The test can be described thus: Binding affinity to human Cav3.2 at 100 uM by Qpatch electrophysiological assay. (In general: In patch-clamp work, channel activity is measured electrically.)
Voltage-dependent T-type calcium channel subunit alpha-1H (Homo sapiens), sequence (O95180 whole entry): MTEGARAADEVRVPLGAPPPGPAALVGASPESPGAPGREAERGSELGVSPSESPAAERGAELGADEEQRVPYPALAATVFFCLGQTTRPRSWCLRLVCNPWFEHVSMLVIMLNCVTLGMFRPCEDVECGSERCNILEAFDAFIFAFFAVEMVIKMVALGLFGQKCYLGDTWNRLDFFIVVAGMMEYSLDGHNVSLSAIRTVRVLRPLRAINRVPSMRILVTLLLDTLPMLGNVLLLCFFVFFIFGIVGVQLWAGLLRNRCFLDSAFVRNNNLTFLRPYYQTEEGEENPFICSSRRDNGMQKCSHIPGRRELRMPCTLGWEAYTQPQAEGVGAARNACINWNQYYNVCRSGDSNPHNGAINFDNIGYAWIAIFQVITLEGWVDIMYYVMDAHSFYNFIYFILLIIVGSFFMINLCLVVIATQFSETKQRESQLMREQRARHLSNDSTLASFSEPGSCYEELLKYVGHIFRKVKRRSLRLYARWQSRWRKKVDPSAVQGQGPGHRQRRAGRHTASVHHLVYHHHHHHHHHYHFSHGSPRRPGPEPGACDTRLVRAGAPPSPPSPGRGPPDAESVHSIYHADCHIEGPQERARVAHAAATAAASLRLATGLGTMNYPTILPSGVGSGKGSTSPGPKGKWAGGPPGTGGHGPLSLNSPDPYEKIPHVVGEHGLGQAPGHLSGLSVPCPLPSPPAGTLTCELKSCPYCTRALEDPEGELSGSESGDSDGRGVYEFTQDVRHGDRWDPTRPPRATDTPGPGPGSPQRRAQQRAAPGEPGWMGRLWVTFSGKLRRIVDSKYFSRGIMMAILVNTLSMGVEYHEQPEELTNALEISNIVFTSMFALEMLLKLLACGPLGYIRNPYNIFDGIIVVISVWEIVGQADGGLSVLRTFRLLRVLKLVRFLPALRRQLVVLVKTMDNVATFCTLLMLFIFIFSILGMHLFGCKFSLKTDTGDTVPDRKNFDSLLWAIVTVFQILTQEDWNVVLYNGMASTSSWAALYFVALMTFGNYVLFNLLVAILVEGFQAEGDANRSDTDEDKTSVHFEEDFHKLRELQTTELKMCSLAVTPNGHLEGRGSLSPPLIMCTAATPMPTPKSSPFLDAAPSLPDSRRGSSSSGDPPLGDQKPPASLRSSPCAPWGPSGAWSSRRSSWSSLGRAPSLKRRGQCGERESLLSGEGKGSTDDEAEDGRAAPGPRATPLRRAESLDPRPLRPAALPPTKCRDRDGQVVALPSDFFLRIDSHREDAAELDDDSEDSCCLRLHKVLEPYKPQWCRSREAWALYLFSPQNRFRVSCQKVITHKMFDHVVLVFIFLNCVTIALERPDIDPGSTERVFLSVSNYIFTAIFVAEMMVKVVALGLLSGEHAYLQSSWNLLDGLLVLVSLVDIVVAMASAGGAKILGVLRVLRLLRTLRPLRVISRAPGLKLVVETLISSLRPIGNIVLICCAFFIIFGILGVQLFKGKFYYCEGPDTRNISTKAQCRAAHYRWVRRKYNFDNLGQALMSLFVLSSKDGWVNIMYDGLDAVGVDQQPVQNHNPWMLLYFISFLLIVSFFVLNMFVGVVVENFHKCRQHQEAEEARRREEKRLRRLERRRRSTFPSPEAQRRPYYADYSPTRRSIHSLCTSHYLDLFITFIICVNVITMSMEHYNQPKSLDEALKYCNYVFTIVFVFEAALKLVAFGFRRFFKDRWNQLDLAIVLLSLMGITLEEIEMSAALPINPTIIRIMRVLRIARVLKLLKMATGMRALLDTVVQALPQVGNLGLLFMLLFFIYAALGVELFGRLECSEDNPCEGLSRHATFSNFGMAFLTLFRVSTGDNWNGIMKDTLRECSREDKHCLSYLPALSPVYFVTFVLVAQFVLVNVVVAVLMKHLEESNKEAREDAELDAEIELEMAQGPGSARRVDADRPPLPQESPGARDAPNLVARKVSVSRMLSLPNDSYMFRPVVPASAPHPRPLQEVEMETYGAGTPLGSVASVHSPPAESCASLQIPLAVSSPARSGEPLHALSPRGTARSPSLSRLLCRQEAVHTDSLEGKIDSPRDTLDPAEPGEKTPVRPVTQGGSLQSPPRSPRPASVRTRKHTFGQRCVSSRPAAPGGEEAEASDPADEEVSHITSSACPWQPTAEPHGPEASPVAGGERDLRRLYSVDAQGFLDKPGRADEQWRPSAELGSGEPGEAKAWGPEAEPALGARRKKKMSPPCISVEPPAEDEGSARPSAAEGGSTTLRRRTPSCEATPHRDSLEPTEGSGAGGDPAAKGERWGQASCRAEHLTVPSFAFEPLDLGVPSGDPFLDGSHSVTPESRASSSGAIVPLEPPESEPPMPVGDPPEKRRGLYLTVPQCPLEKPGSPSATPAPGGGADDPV
Test [8] deals with Mus musculus. The test can be described thus: Anti-seizure activity against electrical stimulus induced seizure in ip dosed CD-1 mouse model assessed as normal behavior within 10 seconds after stimulation at 6 Hz and 32 mA for 3 secs pretreated for […] by psychomotor seizure test. In kind it is functional, organism-based.
The subject of test [9] is Mus musculus. The test can be described thus: Antiseizure activity against ScPTZ-induced seizure in ip dosed CD-1 mouse model assessed as clonic seizures pretreated for […] and measured after 30 mins by subcutaneous pentylenetetrazole test. The format is functional, organism-based.

The source made the active and inactive calls. The rule behind the calls is not given here. A value given as a limit tells only on which side of the number the result lay.

Regarding `CC[C@@H](C(N)=O)N1CCCC1=O`, in the test on Mus musculus [1], the EC50 was greater than 500 mg/kg.
As for `C[C@@H](C(=O)NCc1ccccc1)N1C(=O)CCC1=O`, the Ki (in general, a measure of affinity in units of concentration, obtained from inhibition or displacement) in [2] was greater than 250 µM.
`COC[C@@H](NC(C)=O)C(=O)NCc1ccccc1` [LACOSAMIDE]: in the test with Mus musculus [3], the EC50 was found to be 5.3 mg/kg. Also, the ED50 – broadly, the dose at which the effect has come halfway, by size or by number of responders – in the test listed under Mus musculus [4] was 92 mg/kg. For the same molecule, the outcome in the test listed under Homo sapiens was Active.
For the molecule `C=C(C)[C@@H]1CCC(C)=C[C@H]1c1c(O)cc(CCCCC)cc1O` [CANNABIDIOL], the EC50 amounted to 80 mg/kg in the test on Mus musculus [1] and 120 mg/kg in the test with Mus musculus [5].
With `CCCC(CCC)C(=O)O` [VALPROIC ACID], the EC50 in the test on Mus musculus [3] came out at 130.6 mg/kg; in the test with Mus musculus [6], 239.4 mg/kg.
For the molecule `C[C@H](C(=O)NCc1ccccc1)N1C(=O)CCC1=O`, in test [2], the Ki is greater than 250 µM.
`CCC1(C)CC(=O)NC1=O` (stereo not drawn) [ETHOSUXIMIDE]: in [7], the outcome was Active. For the same molecule, the figures for the EC50 with Mus musculus [8] and in the test with Mus musculus [9] were greater than 200 mg/kg and 140.4 mg/kg, respectively.

(Values after ChEMBL document CHEMBL5113514 (J Med Chem, 2022).)
